The results in this text go back to US20250051263A1, “NOVEL IONIZABLE LIPIDS AND LIPID NANOPARTICLES AND METHODS OF USING THE SAME” (Sail Biomedicines, Inc., priority 2021, published 2025).

Data set [1] is described as follows: TNS (pKa) assay, apparent LNP pKa. It is filed as physicochemical. Conditions: for pKa (TNS): Example 5 LNP lipid:DOPE:Plant Cholesterol:DMPE-PEG2k 35:16:46.5:2.5, FLUC/EPO 1:1 mRNA, N:P 6:1. An outline of the steps: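 LNPs (0.04 mg/mL mRNA) mixed with TNS reagent (0.3 mM stock in DMSO) in 20 phosphate/borate/citrate/150 mM NaCl buffers spanning pH 3.0-12.0, in triplicate. Fluorescence read at 321/445 nm, fitted to a 4-parameter sigmoid; apparent pKa is the pH of half-maximal fluorescence.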

The next data set has as its system Balb/c mice. The data set is described as follows: In-vivo bioluminescent imaging after IV injection of Fluc mRNA LNP. To be noted: for Bioluminescence (IV) Liver / Bioluminescence (IV) Lung / Bioluminescence (IV) Spleen / Bioluminescence (IV) Whole Body / Spleen: Liver Ratio: Example 5 LNP (DOPE 35:16:46.5:2.5), 5 μg FLUC + 5 μg EPO; for Bioluminescence (IV) Liver / Bioluminescence (IV) Lung / Bioluminescence (IV) Spleen / Bioluminescence (IV) Whole Body / Bioluminescence Liver / Bioluminescence Lung / Bioluminescence Spleen: 4-6 hours post-dose; for Bioluminescence (IV) Liver / Bioluminescence (IV) Lung / Bioluminescence (IV) Spleen / Bioluminescence (IV) Whole Body / Spleen: Liver Ratio / Bioluminescence Liver / Bioluminescence Lung / Bioluminescence Spleen: IV; for Spleen: Liver Ratio: ratio of bioluminescence; for Bioluminescence Liver / Bioluminescence Lung / Bioluminescence Spleen: 5 ug Fluc+5 ug EPO mRNA.

Where [2] appears, read: LNP lipid:DOPE:Plant Chol.:DMPE-PEG2k 35:16:46.5:2.5 (Table 1).
Setting [3] is: LNP lipid:DSPC:Plant Chol.:DMPE-PEG2k 50:10:38.5:1.5.

Structures are written as SMILES.

With `CCCCCCCCCCCNC(=O)CCCCCN(CCCCCCCC(=O)NC(CCCCCCCC)CCCCCCCC)CCNC(=O)CCC(=O)NCCN(CCCCCCCC(=O)NC(CCCCCCCC)CCCCCCCC)CCCCCC(=O)NCCCCCCCCCCC` [Compound 2282, N,N′-bis[2-[[8-(1-octylnonylamino)-8-oxo-octyl]-[6-oxo-6-(undecylamino)hexyl]amino]ethyl]butanediamide], in data set [1], the “pKa (TNS)” value amounted to 6.92. In the data set on Balb/c mice, the “Bioluminescence (IV) Liver” value worked out at 5.7E+07, the “Bioluminescence (IV) Lung” value was 3.8E+04, the “Bioluminescence (IV) Spleen” value turned out to be 5.4E+06 and the “Bioluminescence (IV) Whole Body” value is listed as 7.7E+08. In the data set on Balb/c mice, the “Spleen: Liver Ratio” value is 0.092.
For `CCCCCCCCCCCOC(=O)CCCCCN(CCCCCCCC(=O)OCCCC(CCCCC)CCCCC)CCNC(=O)/C=C/C(=O)NCCN(CCCCCCCC(=O)OCCCC(CCCCC)CCCCC)CCCCCC(=O)OCCCCCCCCCCC` [Compound 2382, 4-pentylnonyl 8-[2-[[(E)-4-oxo-4-[2-[[8-oxo-8-(4-pentylnonoxy)octyl]-(6-oxo-6-undecoxy-hexyl)amino]ethylamino]but-2-enoyl]amino]ethyl-(6-oxo-6-undecoxy-hexyl)amino]octanoate], the “pKa (TNS)” value in data set [1] stood at 6.97. Moreover, in the data set on Balb/c mice, the “Bioluminescence (IV) Liver” value is reported as 1.9E+07, the “Bioluminescence (IV) Lung” value is on record as 2.1E+04, the “Bioluminescence (IV) Spleen” value stood at 2.1E+06 and the “Bioluminescence (IV) Whole Body” value was 1.5E+08. Besides, the “Spleen: Liver Ratio” value in the data set on Balb/c mice came to 0.104.
Take `CCCCCCCCCCC(CC)OC(=O)CCCCCN(CCCCCCCC(=O)OC(CCCCCCCC)CCCCCCCC)CCNC(=O)CCC(=O)NCCN(CCCCCCCC(=O)OC(CCCCCCCC)CCCCCCCC)CCCCCC(=O)OC(CC)CCCCCCCCCC` (stereo not drawn) [Compound 2356, 1-octylnonyl 8-[[6-(1-ethylundecoxy)-6-oxo-hexyl]-[2-[[4-[2-[[6-(1-ethylundecoxy)-6-oxo-hexyl]-[8-(1-octylnonoxy)-8-oxo-octyl]amino]ethylamino]-4-oxo-butanoyl]amino]ethyl]amino]octanoate]: in data set [1], the “pKa (TNS)” value turned out to be 6.01. In the data set on Balb/c mice, the “Bioluminescence (IV) Liver” value is 1.3E+08, the “Bioluminescence (IV) Lung” value stood at 9.1E+03, the “Bioluminescence (IV) Spleen” value came out at 1.3E+06 and the “Bioluminescence (IV) Whole Body” value is 8.1E+08. The “Spleen: Liver Ratio” value in the data set on Balb/c mice came out at 0.010.
For `CCCCCCCCCCCOC(=O)CCCCCN(CCCCCCCC(=O)OC(CCCCCCCC)CCCCCCCC)CCN1CCN(CCN(CCCCCCCC(=O)OC(CCCCCCCC)CCCCCCCC)CCCCCC(=O)OCCCCCCCCCCC)CC1` [Compound 2248, 1-octylnonyl 8-[2-[4-[2-[[8-(1-octylnonoxy)-8-oxo-octyl]-(6-oxo-6-undecoxy-hexyl)amino]ethyl]piperazin-1-yl]ethyl-(6-oxo-6-undecoxy-hexyl)amino]octanoate], the “pKa (TNS)” value in data set [1] is 6.1. For the same compound, in the data set on Balb/c mice, the “Bioluminescence (IV) Liver” value worked out at 5.6E+07, the “Bioluminescence (IV) Lung” value is 2.7E+04, the “Bioluminescence (IV) Spleen” value is reported as 4.5E+05 and the “Bioluminescence (IV) Whole Body” value amounted to 3.5E+08. The “Spleen: Liver Ratio” value with Balb/c mice is given as 0.008.
For the compound `CCCCCCCCCCCOC(=O)CCCCCN(CCCCCCCC(=O)OC(CCCCCC)CCCCCCCC)CCNC(=O)CCC(=O)NCCN(CCCCCCCC(=O)OC(CCCCCC)CCCCCCCC)CCCCCC(=O)OCCCCCCCCCCC` (stereo not drawn) [Compound 2390, 1-hexylnonyl 8-[2-[[4-[2-[[8-(1-hexylnonoxy)-8-oxo-octyl]-(6-oxo-6-undecoxy-hexyl)amino]ethylamino]-4-oxo-butanoyl]amino]ethyl-(6-oxo-6-undecoxy-hexyl)amino]octanoate], the “pKa (TNS)” value in data set [1] was found to be 6.82. In the data set with Balb/c mice, the “Bioluminescence (IV) Liver” value stood at 1.9E+07, the “Bioluminescence (IV) Lung” value is 1.2E+04, the “Bioluminescence (IV) Spleen” value is 1.7E+06 and the “Bioluminescence (IV) Whole Body” value is 1.9E+08. Moreover, the “Spleen: Liver Ratio” value in the data set on Balb/c mice is 0.094.
In the case of `CCCCCCCCCC(C)COC(=O)CCCCCN(CCCCCCCC(=O)OC(CCCCCCCC)CCCCCCCC)CCNC(=O)CCC(=O)NCCN(CCCCCCCC(=O)OC(CCCCCCCC)CCCCCCCC)CCCCCC(=O)OCC(C)CCCCCCCCC` (stereo not drawn) [Compound 2355, 1-octylnonyl 8-[[6-(2-methylundecoxy)-6-oxo-hexyl]-[2-[[4-[2-[[6-(2-methylundecoxy)-6-oxo-hexyl]-[8-(1-octylnonoxy)-8-oxo-octyl]amino]ethylamino]-4-oxo-butanoyl]amino]ethyl]amino]octanoate], the “pKa (TNS)” value in data set [1] was 6.2. Besides, in the data set on Balb/c mice, the “Bioluminescence (IV) Liver” value was determined as 1.8E+07, the “Bioluminescence (IV) Lung” value was found to be 5.9E+03, the “Bioluminescence (IV) Spleen” value came to 4.6E+05 and the “Bioluminescence (IV) Whole Body” value was 1.4E+08. Besides, the “Spleen: Liver Ratio” value in the data set with Balb/c mice came out at 0.026.
As usually defined, the pKa is the negative logarithm of the acid dissociation constant. In the case of `CCCCCCCCCCCOC(=O)CCCCCN(CCCCCCCC(=O)OC(CCCCCCCC)CCCCCCCC)CCNC(=O)/C=C/C(=O)NCCN(CCCCCCCC(=O)OC(CCCCCCCC)CCCCCCCC)CCCCCC(=O)OCCCCCCCCCCC` [Compound 2252, 1-octylnonyl 8-[2-[[(E)-4-[2-[[8-(1-octylnonoxy)-8-oxo-octyl]-(6-oxo-6-undecoxy-hexyl)amino]ethylamino]-4-oxo-but-2enoyl]amino]ethyl-(6-oxo-6-undecoxy-hexyl)amino]octanoate], the “pKa (TNS)” value in data set [1] was found to be 6.06. Besides, the pKa in data set [1] (LNP ionizable lipid:DOPE:Plant Chol.:DMPE-PEG2k 35:16:46.5:2.5 (Table 1)) turned out to be 6.06. The pKa in data set [1] (LNP ionizable lipid:DSPC:Plant Chol.:DMPE-PEG2k 50:10:38.5:1.5) is reported as 5.49. For the same compound, in the data set with Balb/c mice, the “Bioluminescence (IV) Liver” value is reported as 1.5E+07, the “Bioluminescence (IV) Lung” value is given as 3.3E+03, the “Bioluminescence (IV) Spleen” value is 2.3E+05 and the “Bioluminescence (IV) Whole Body” value was found to be 7.2E+07. For the same compound, the “Spleen: Liver Ratio” value in the data set with Balb/c mice is on record as 0.015. Also, in the data set with Balb/c mice (setting [2]), the “Bioluminescence Liver” value was 1.52E+07, the “Bioluminescence Lung” value amounted to 3.27E+03 and the “Bioluminescence Spleen” value amounted to 2.32E+05. In the data set with Balb/c mice (setting [3]), the “Bioluminescence Liver” value is listed as 2.41E+05, the “Bioluminescence Lung” value was found to be 1.03E+04 and the “Bioluminescence Spleen” value is listed as 4.69E+05. Besides, the “bioluminescence in the liver, spleen, and lung” value in the data set on Balb/c mice (used as part of an ionizable lipid scaffold (LNP), Table 1) is reported as “improved bioluminescence”.
